Key:
[1] = system: tumor necrosis factor (α); assay: Cytokine Induction in Human Cells: tumor necrosis factor; type: cell-based; design: key to Lowest Effective Concentration (μM) Tumor Necrosis Factor: A “*” indicates that no induction was seen at any of the tested concentrations; settings: human PBMC, 18 to 24 hours, tested 30-0.014 μM, TNF by ELISA or IGEN assay; for minimal effective concentration: read-out: Lowest Effective Concentration (μM) Tumor Necrosis Factor
Text: (§1) An in vitro human blood cell system is used to assess cytokine induction. Activity is based on the measurement of interferon and tumor necrosis factor (α) (IFN and TNF, respectively) secreted into culture media as described by Testerman et. al. In “Cytokine Induction by the Immunomodulators Imiquimod and S-27609”, Journal of Leukocyte Biology, 58, 365-372 (September, 1995).
(§2) Whole blood from healthy human donors is collected by venipuncture into EDTA vacutainer tubes. Peripheral blood mononuclear cells (PBMC) are separated from whole blood by density gradient centrifugation using Histopaque®-1077. Blood is diluted 1:1 with Dulbecco's Phosphate Buffered Saline (DPBS) or Hank's Balanced Salts Solution (HBSS). The PBMC layer is collected and washed twice with DPBS or HBSS and resuspended at 4×10^6 cells/mL in RPMI complete. The PBMC suspension is added to 48 well flat bottom sterile tissue culture plates (Costar, Cambridge, Mass. or Becton Dickinson Labware, Lincoln Park, N.J.) containing an equal volume of RPMI complete media containing test compound.
(§3) The compounds are solubilized in dimethyl sulfoxide (DMSO). The DMSO concentration should not exceed a final concentration of 1% for addition to the culture wells. The compounds are generally tested at concentrations ranging from 30-0.014 μM.
(§4) The solution of test compound is added at 60 μM to the first well containing RPMI complete and serial 3 fold dilutions are made in the wells. The PBMC suspension is then added to the wells in an equal volume, bringing the test compound concentrations to the desired range (30-0.014 μM). The final concentration of PBMC suspension is 2×10^6 cells/mL. The plates are covered with sterile plastic lids, mixed gently and then incubated for 18 to 24 hours at 37° C. in a 5% carbon dioxide atmosphere.
(§5) Following incubation the plates are centrifuged for 10 minutes at 1000 rpm (˜200× g) at 4° C. The cell-free culture supernatant is removed with a sterile polypropylene pipet and transferred to sterile polypropylene tubes. Samples are maintained at −30 to −70° C. until analysis. The samples are analyzed for interferon (α) by ELISA and for tumor necrosis factor (α) by ELISA or IGEN Assay
Tumor necrosis factor (α) (TNF) concentration is determined using ELISA kits available from Biosource International, Camarillo, Calif. Alternately, the TNF concentration can be determined by Origen® M-Series Immunoassay and read on an IGEN M-8 analyzer from IGEN International, Gaithersburg, Md. The immunoassay uses a human TNF capture and detection antibody pair from Biosource International, Camarillo, Calif. Results are expressed in pg/mL.
(§6) The table below lists the lowest concentration found to induce interferon and the lowest concentration found to induce tumor necrosis factor for each compound.

[2] = system: interferon (α); assay: Cytokine Induction in Human Cells: interferon; type: cell-based; settings: human PBMC, 18 to 24 hours, tested 30-0.014 μM, interferon (α) by ELISA; read-out: Lowest Effective Concentration (μM) Interferon
Text: as §1, §2, §3, §4, §5
Interferon (α) concentration is determined by ELISA using a Human Multi-Species kit from PBL Biomedical Laboratories, New Brunswick, N.J. Results are expressed in pg/mL.
as §6

Row | melting point [°C] | SMILES | minimal effective concentration [1] [µM] | minimal effective concentration [2] [µM] | Lowest Effective Concentration (μM) Tumor Necrosis Factor [1]
1 | 175 to 177 | Nc1nc2ccccc2c2c1ncn2CCCCS(=O)(=O)c1ccccc1 [Example 7, 1-[4-(phenylsulfonyl)butyl]-1H-imidazo[4,5-c]quinolin-4-amine] | 10 | 3.33 | 
2 | 203 to 204 | CS(=O)(=O)CCCCn1cnc2c(N)nc3ccccc3c21 [Example 8, 1-[4-(methylsulfonyl)butyl]-1H-imidazo[4,5-c]quinolin-4-amine] |  | 10 | *
3 | 210 to 212 | CCc1nc2c(N)nc3ccccc3c2n1CCCSC [Example 24, 2-ethyl-1-[3-(methylthio)propyl]-1H-imidazo[4,5-c]quinolin-4-amine] | 0.37 | 0.12 | 
4 | 193 to 195 | CSCCn1c(C)nc2c(N)nc3ccccc3c21 [Example 32, 2-methyl-1-[2-(methylthio)ethyl]-1H-imidazo[4,5-c]quinolin-4-amine] | 0.12 | 0.12 | 
5 | 183 to 186 | CCc1nc2c(N)nc3ccccc3c2n1CCCCSC [Example 28, 2-ethyl-1-[4-(methylthio)butyl]-1H-imidazo[4,5-c]quinolin-4-amine] | 0.37 | 0.01 | 
6 | 235 to 240 | Cc1nc2c(N)nc3ccccc3c2n1CCCCCS(C)(=O)=O [Example 12, 2-methyl-1-[5-(methylsulfonyl)pentyl]-1H-imidazo[4,5-c]quinolin-4-amine] | 10 | 0.12 | 
7 | 126 to 128 | CCCCc1nc2c(N)nc3ccccc3c2n1CCCC[S+](C)[O-] (stereo not drawn) [Example 31, 2-butyl-1-[4-(methylsulfinyl)butyl]-1H-imidazo[4,5-c]quinolin-4-amine] | 0.12 | 0.04 | 
8 | 184 to 187 | Cc1nc2c(N)nc3ccccc3c2n1CCCC[S+](C)[O-] (stereo not drawn) [Example 27, 2-methyl-1-[4-(methylsulfinyl)butyl]-1H-imidazo[4,5-c]quinolin-4-amine] | 10 | 3.33 | 
9 | 182 to 185 | CCc1nc2c(N)nc3ccccc3c2n1CCCCS(C)(=O)=O [Example 29, 2-ethyl-1-[4-(methylsulfonyl)butyl]-1H-imidazo[4,5-c]quinolin-4-amine] | 3.33 | 0.12 | 
10 | 168 to 171 | CCCCCCc1nc2c(N)nc3ccccc3c2n1CCCCCS(C)(=O)=O [Example 15, 2-hexyl-1-[5-(methylsulfonyl)pentyl]-1H-imidazo[4,5-c]quinolin-4-amine] |  | 0.04 | *
11 | 158 to 160 | Nc1nc2ccccc2c2c1ncn2CCCCSc1ccccc1 [Example 9, 1-[4-(phenylthio)butyl]-1H-imidazo[4,5-c]quinolin-4-amine] | 3.33 | 3.33 | 
12 | 192 to 195 | CS(=O)(=O)CCCCCn1c(C(F)(F)F)nc2c(N)nc3ccccc3c21 [Example 71, 1-[5-(methylsulfonyl)pentyl]-2-(trifluoromethyl)-1H-imidazo[4,5-c]quinolin-4-amine] |  | 30 | *
13 | 202 to 206 | Cc1nc2c(N)nc3ccccc3c2n1CCCCCCS(C)(=O)=O [Example 68, 2-methyl-1-[6-(methylsulfonyl)hexyl]-1H-imidazo[4,5-c]quinolin-4-amine] | 0.12 | 0.014 | 
14 | 226 to 228 | CCCCc1nc2c(N)nc3ccccc3c2n1CCS(C)(=O)=O [Example 67, 2-butyl-1-[2-(methylsulfonyl)ethyl]-1H-imidazo[4,5-c]quinolin-4-amine] | 0.04 | 0.01 | 
15 | 164 to 165 | CCCCc1nc2c(N)nc3ccccc3c2n1CCCCS(C)(=O)=O [Example 5, 2-butyl-1-[4-(methylsulfonyl)butyl]-1H-imidazo[4,5-c]quinolin-4-amine] | 0.04 | 0.01 | 
16 | 199 to 201 | CS(=O)(=O)CCCCCn1cnc2c(N)nc3ccccc3c21 [Example 14, 1-[5-(methylsulfonyl)pentyl]-1H-imidazo[4,5-c]quinolin-4-amine] | 10 | 3.33 | 
17 | 122 to 126 | CCCCc1nc2c(N)nc3ccccc3c2n1CCCCSc1ccc(F)cc1F [Example 37, 2-butyl-1-{4-[(2,4-difluorophenyl)thio]butyl}-1H-imidazo[4,5-c]quinolin-4-amine] | 1.11 | 0.37 | 
18 | 233 to 236 | CCCCc1nc2c(N)nc3ccccc3c2n1CCCS(C)(=O)=O [Example 19, 2-butyl-1-[3-(methylsulfonyl)propyl]-1H-imidazo[4,5-c]quinolin-4-amine] | 0.37 | 0.04 | 
19 | 224 to 227 | CCCCc1nc2c(N)nc3ccccc3c2n1CCCS(=O)(=O)c1ccccc1 [Example 20, 2-butyl-1-[3-(phenylsulfonyl)propyl]-1H-imidazo[4,5-c]quinolin-4-amine] | 0.37 | 0.04 | 
20 | > 250 | CCc1nc2c(N)nc3ccccc3c2n1CCCS(C)(=O)=O [Example 25, 2-ethyl-1-[3-(methylsulfonyl)propyl]-1H-imidazo[4,5-c]quinolin-4-amine] | 3.33 | 0.37 | 
21 | 158 to 160 | COCCc1nc2c(N)nc3ccccc3c2n1CCCCCS(C)(=O)=O [Example 16, 2-(2-methoxyethyl)-1-[5-(methylsulfonyl)pentyl]-1H-imidazo[4,5-c]quinolin-4-amine] | 0.04 | 0.01 | 
22 | 179 to 180 | CCCCc1nc2c(N)nc3ccccc3c2n1CCCCS(=O)(=O)c1ccccc1 [Example 3, 2-butyl-1-[4-(phenylsulfonyl)butyl]-1H-imidazo[4,5-c]quinolin-4-amine] | 0.12 | 0.04 | 
23 | 119 to 121 | CCCCc1nc2c(N)nc3ccccc3c2n1CCCCC[S+](C)[O-] (stereo not drawn) [Example 18, 2-butyl-1-[5-(methylsulfinyl)pentyl]-1H-imidazo[4,5-c]quinolin-4-amine] | 0.12 | 0.01 | 
24 | 190 to 193 | CSCCCCn1c(C)nc2c(N)nc3ccccc3c21 [Example 26, 2-methyl-1-[4-(methylthio)butyl]-1H-imidazo[4,5-c]quinolin-4-amine] | 0.37 | 0.04 | 
25 | 172 to 175 | COCCc1nc2c(N)nc3ccccc3c2n1CCCCCS(=O)(=O)c1ccccc1 [Example 70, 2-(2-methoxyethyl)-1-[5-(phenylsulfonyl)pentyl]-1H-imidazo[4,5-c]quinolin-4-amine] | 0.01 | 0.01 | 
26 | 206 to 209 | Cc1nc2c(N)nc3ccccc3c2n1CCCCS(C)(=O)=O [Example 34, 2-methyl-1-[4-(methylsulfonyl)butyl]-1H-imidazo[4,5-c]quinolin-4-amine] | 3.33 | 0.37 | 

From US6667312B2, “Thioether substituted imidazoquinolines” (3M Innovative Properties Company, priority 2000, dated 2003)
